Assay results: patent US20250090498A1, “TREATMENT OF PRIMARY CTLA-4 CHECKPOINT RELATED IMMUNODEFICIENCIES” (ADIENNE PHARMA & BIOTECH SA, priority 2023, published 2025)

Assays:
AhR = AhR luciferase reporter in mouse hepatoma cells H1L6.1c3; type: cell-based; design: dose or concentration left out as unconfirmed; settings: higher RLU at 2 h lasting until 24h
Procedure: The ability of 1ME3CA was comparatively assessed here in mouse hepatoma cells (H1L6.1c3), kindly provided by Allison K. Ehrlich (Meyer Hall, University of California, Davis, United States), containing the stably integrated AhR xenobiotic responsive element driven by a firefly luciferase reporter plasmid, pGudLuc6.167. Cells were plated in MEMA (Gibco), supplemented with 10% fetal serum bovine and 1% penicillin-streptomycin solution, in 24-well plate and stimulated with different concentrations of either 3-IAld or 1ME3CA. Luciferase activity, calculated as relative light units (RLU) per microgram of protein and expressed as fold induction, was carried at 2 or 24 hours of exposure.

immune-mediated colitis = immune-mediated colitis in NSG mice infused with hPBMCs and treated with anti-CTLA-4 mAb; type: in vivo
Procedure: Humanized immunodeficient NSG mice were injected with human peripheral blood mononuclear cells from healthy donors and treated with anti-CTLA-4 monoclonal antibody. NOD.Cg-Prkdcscid Il2rgtm1Wjl/SzJ (NSG) mice, 8-10 weeks old, were injected intraperitoneally with human peripheral blood mononuclear cells (107) freshly isolated from healthy donors and treated intraperitoneally with 100 μg of anti-CTLA-4 mAb or human IgG as antibody control at days 0, 4, 8, 12 and 16.
3-IAld (18 mg/kg) was administered intragastrically every other day starting the day of cell infusion. Mice were monitored daily for overall mortality and body weight loss and sacrificed on day 21.

[1] = tested on: DSS+anti-CTLA-4-induced colitis; test: DSS+anti-CTLA-4-induced colitis in 8-10 wk-old Il10−/− mice; type: in vivo
Procedure: Il10^−/− Mice received DSS (1%) in their drinking water and 100 μg anti-CTLA-4 monoclonal antibody intraperitoneally at days 0, 4 and 8 following the DSS administration. 3-IAld-Eudragit was given (18 mg/kg 3-IAld) intragastrically every other day throughout the experiment, starting 2 days before treatment. Animals were monitored daily for body weight and inflammatory pathology in the colon until 14 days after DSS administration.

[2] = tested on: disease progression in IL-10-deficient mice; test: disease progression in 16 wk-old IL-10-deficient mice, 3-IAld for 4 weeks then 1% DSS; type: in vivo, Il10−/− mice; settings: 3-IAld every other day for 4 weeks
Procedure: Sixteen week-old IL-10-deficient mice (Il10^−/−) were treated with 3-IAld every other day for 4 weeks, as illustrated in FIG. 10A. As a mimic of disease exacerbation, mice received 1% DSS after 3-IAld treatment and subsequently evaluated for weight change, intestinal pathology and epithelial integrity.

B16 tumor cells = test: anti-CTLA-4-responsive B16 melanoma model; type: in vivo, C57BL/6 mice
Procedure: For FIGS. 12A-12E, C57BL/6 mice were subcutaneously injected with B16 tumor cells and administered 100 μg anti-CTLA-4 mAb or isotype control intraperitoneally four times at 3-day intervals up to 16 days. 3-IAld was administered intragastrically every other day. Mice were evaluated for (FIG. 12A) tumor growth, (FIG. 12B) histology (periodic acid-Schiff staining), (FIG. 12C) immunohistochemistry for CD8+ and CD4+ tumor-infiltrating lymphocytes (TIL), (FIG. 12D) number of positive TIL per high-power field, HPF and (FIG. 12E) Cxcl9 and Perforin expression. (FIGS. 12F-12J) C57BL/6 mice were orthotopically injected with LLC cells and administered 200 μg anti-PD-1 mAb or isotype control intraperitoneally five times at 3-day intervals up to 18 days. 3-IAld was administered intragastrically every other day. Mice were evaluated for (FIG. 12F) % survival, (FIG. 12G) lung weight, (FIG. 12H) lung gross pathology, (FIGS. 12I, 12J) CD4+CD25+Foxp3+ cells. Photographs were taken with a high-resolution microscope, ×40 magnification (scale bars, 100 μm). Each in vivo experiment includes three mice per group (nine mice in each experiment). […]
(§1) The potential application of 3-IAld requires that its immunoregulatory activity would not impinge the tumor immunosurveillance. To this purpose, the effect of 3-IAld was assessed in the anti-CTLA-4-responsive B16 melanoma model (Renga et al, 2022).

LLC cells = test: Lewis lung carcinoma (LLC) model with anti-PD-1 antibody; type: in vivo, C57BL/6 mice
Procedure: For FIGS. 12A-12E, C57BL/6 mice were subcutaneously injected with B16 tumor cells and administered 100 μg anti-CTLA-4 mAb or isotype control intraperitoneally four times at 3-day intervals up to 16 days. 3-IAld was administered intragastrically every other day. Mice were evaluated for (FIG. 12A) tumor growth, (FIG. 12B) histology (periodic acid-Schiff staining), (FIG. 12C) immunohistochemistry for CD8+ and CD4+ tumor-infiltrating lymphocytes (TIL), (FIG. 12D) number of positive TIL per high-power field, HPF and (FIG. 12E) Cxcl9 and Perforin expression. (FIGS. 12F-12J) C57BL/6 mice were orthotopically injected with LLC cells and administered 200 μg anti-PD-1 mAb or isotype control intraperitoneally five times at 3-day intervals up to 18 days. 3-IAld was administered intragastrically every other day. Mice were evaluated for (FIG. 12F) % survival, (FIG. 12G) lung weight, (FIG. 12H) lung gross pathology, (FIGS. 12I, 12J) CD4+CD25+Foxp3+ cells. Photographs were taken with a high-resolution microscope, ×40 magnification (scale bars, 100 μm). Each in vivo experiment includes three mice per group (nine mice in each experiment). Data are represented as mean±SEM. One-way analysis of variance, Bonferroni post hoc test. *P<0.05, **P<0.01, ***P<0.001.
as §1

DSS-induced colitis = settings: cited from earlier work
[3] = cited from earlier work
[4] = tested on: colitis, gastrointestinal and vaginal candidiasis; settings: mouse, in vivo; cited from earlier work
[5] = 3-IAld 18 mg/kg intragastrically every other day, 21 days
[6] = 3-IAld-Eudragit 18 mg/kg, DSS 1%

## Cn1cc(C(=O)O)c2ccccc21 [1-methylindole-3-carboxylic acid, 1-Methyl-1H-indole-3-carboxylic acid]
AhR
  induction of luciferase activity (RLU, fold induction) versus 3-IAld: more potent inducer of luciferase activity

## O=Cc1c[nH]c2ccccc12 [3-IAld, 1H-indole-3-carbaldehyde]
immune-mediated colitis; 3-IAld 18 mg/kg
  immune-mediated colitis (overall): protects mice from immune-mediated colitis
immune-mediated colitis; [5]
  survival: increased
  weight loss: reduced
immune-mediated colitis; 3-IAld 18 mg/kg, colon, day 21
  histology score: improved
  inflammatory histopathology: improved
immune-mediated colitis; 3-IAld 18 mg/kg, day 21
  barrier function (expression of ZO-1): restored
  inflammatory cytokine gene expression: decreased
[1]; 3-IAld
  DSS+anti-CTLA-4-induced colitis (overall): protects
[1]; 3-IAld-Eudragit 18 mg/kg intragastrically every other day, DSS 1%
  loss of body weight: prevented
[1]; [6]
  disease activity index: decreased
  inflammatory pathology (colon): decreased
[2]
  colon inflammatory histopathology: slow down
  disease progression (overall): slows disease progression
  loss of body weight: slow down
[2]; PAS and Ki-67
  epithelial integrity and renewal: maintain
B16 tumor cells; 3-IAld with anti-CTLA-4 mAb
  recruitment of CD4+ and CD8+ tumour-infiltrating lymphocytes: did not affect
B16 tumor cells; B16 and LLC models
  development of antitumor immunity / tumor immunosurveillance (overall): does not interfere
LLC cells; 3-IAld with 200 μg anti-PD-1 mAb
  therapeutic efficacy of anti-PD-1 antibody: did not interfere
LLC cells; 3-IAld with anti-PD-1 mAb
  ability of anti-PD-1 antibody to increase survival: did not prevent
  ability of anti-PD-1 antibody to reduce the recruitment of Foxp3+CD25+ Treg cells in the lung: did not prevent
LLC cells; 3-IAld with anti-PD-1 mAb, lung
  ability of anti-PD-1 antibody to improve gross pathology: did not prevent
LLC cells; 3-IAld with anti-PD-1 mAb, lung weight
  ability of anti-PD-1 antibody to decrease tumour growth: did not prevent
DSS-induced colitis; intragastric administration, AhR-dependent manner
  IL-22 production: induced IL-22 production
DSS-induced colitis; mouse, in vivo
  therapeutic efficacy in a murine model of dextran-induced colitis: therapeutic efficacy
[3]
  acidity (based on its pKa): very weakly acidic
  solubility in water: slightly soluble
[4]
  barrier integrity and production of antimicrobial peptides: enhanced
